Measurements published in PMC4807533, “Specific tracking of xylan using fluorescent-tagged carbohydrate-binding module 15 as molecular probe” (Biotechnology for Biofuels, 2016).
Where two headings read alike, the source gives them in different places.

Biological target: T1, OC15 (mOrange2-CBM15 fusion probe) (Cellvibrio japonicus, UniProt Q59675)
T1 construct: gene xyn10C; CBM15 domain of xylanase Xyn10C, C-terminal; N-terminal His6-mOrange2 reporter, tags kept; single Gly linker; synthetic gene, pET11a, E. coli BL21-Gold(DE3)pLysS; primers imply CBM15 begins VAAS and ends at stop after EAYSAN
Test: isothermal titration calorimetry
Type: binding
Settings: 20 mM Tris-HCl pH 7.5, 20 mM NaCl, 5 mM CaCl2, 25 °C
From the text: isothermal titration calorimetry on OC15 (mOrange2-CBM15 fusion probe)

T1 sequence (Q59675 86-247): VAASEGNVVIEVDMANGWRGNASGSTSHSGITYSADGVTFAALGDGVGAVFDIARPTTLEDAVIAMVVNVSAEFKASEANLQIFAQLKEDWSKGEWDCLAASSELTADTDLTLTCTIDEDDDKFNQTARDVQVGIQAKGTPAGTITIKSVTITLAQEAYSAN

Structure (SMILES)	Kd (cellohexaose of 90 % purity, read-out: K a × 10^3 (M^-1) (converted))	Kd (cellohexaose of 90 % purity, read-out: K d)	Kd (read-out: K a × 10^3 (M^-1) (converted))	Kd (read-out: K d)
OC[C@H]1O[C@@H](O[C@H]2[C@H](O)[C@@H](O)[C@H](O[C@H]3[C@H](O)[C@@H](O)[C@H](O[C@H]4[C@H](O)[C@@H](O)[C@H](O[C@H]5[C@H](O)[C@@H](O)[C@H](O[C@H]6[C@H](O)[C@@H](O)C(O)O[C@@H]6CO)O[C@@H]5CO)O[C@@H]4CO)O[C@@H]3CO)O[C@@H]2CO)[C@H](O)[C@@H](O)[C@@H]1O (stereo partly shown) [cellohexaose]	476 µM	479 µM		
OC1OC[C@@H](O[C@@H]2OC[C@@H](O[C@@H]3OC[C@@H](O[C@@H]4OC[C@@H](O[C@@H]5OC[C@@H](O[C@@H]6OC[C@@H](O)[C@H](O)[C@H]6O)[C@H](O)[C@H]5O)[C@H](O)[C@H]4O)[C@H](O)[C@H]3O)[C@H](O)[C@H]2O)[C@H](O)[C@H]1O (stereo partly shown) [xylohexaose]			29.4 µM	29.4 µM
